Tests used:
Magen = test: Ulcer test (gastric ulceration); type: in vivo, Wistar-Eatten (SPF)
Excerpt: Eine häufige Komplikation bei der Therapie mit nichtsteroidalen Entzündungshemmern stellt das Auftreten von Magenulcerationen dar. Diese Nebenwirkung kann im Tierversuch nachgewiesen werden, wobei als Dosis die Menge Testsubstanz verwendet wird, bei der im Adjuvans-Arthritis Test eine 40 %ige Abheilung beobachtet wird. Der Ulkus-Test wird wie folgt durchgeführt.
Es werden männliche Wistar-Eatten (SPF) verwandt. Die Tiere liege in einer Gewichtsspanne von 130 + 10 g. 16 Stunden vor Versuchsbeginn werden die Tiere vom Futter abgesetzt; sie erhalten Wasser ad libitum.
Pro Dosis werden 5 Tiere eingesetzt. Die Substanzen werden einmal oral, in Natriumelorid gelöst' oder als Kristallsuspension unter Zusatz von 85 mg% Myrj 53_appliziert.
3 Stunden nach Substanzapplikation injiziert man 1 ml einer 3 %igen Lösung des Farbstoffs Diphenylreinblau intravenös und tötet das Tier. Der Magen wird reseziert und mikroskopisch auf Anzahl von Epithclläsionen und Ulcera, die durch Farbstoffanreichcrunsen hervortreten, untersucht.

Adjuvans-Arthritis = test: Adjuvant arthritis test (antiphlogistic activity); type: in vivo, Ratten des Stammes Lewis (LEW); conditions: Rattus norvegicus; dose giving 40 % healing of right hind paw; M. butyricum adjuvant; oral, daily over 4 days from day 11; Lewis rats; read-out: Adjuvans-Arthritis Test in mg/kg Tier (ED40)
Excerpt: Die antiphlogistische Wirksamkeit der eriindungsgemäßen Substanzen kann mit Hilfe des bekannten Adjuvans-Arthritis-Testes ermittelt werden, der wie folgt durchgeführt wird:
Es werden weibliche und männliche Ratten des Stammes Lewis (LEW) in der Gewichtsspanne zwischen 110 - 190 g verwendet. Die Tiere erhalten Trinkwasser und Altromin-Preßfutter ad libitum.
Für jede Dosisgruppe werden 10 Ratten eingesetzt .
Mycobacterium butyricum der Firma Difko, Detroit, wird als Reizmittel verwandt. Eine Suspension von 0,5 mg M. butyricum in 0,1 ml dünnflüssigem Paraffin. (DAB 7) wird in die rechte Hinterpfote subplantar injiziert.
Die Testsubstanzen werden vom 11. Versuchstag an täglich über 4 Tage oral gegeben. Die Substanzen werden als klare wässrige Lösung oder als Kristallsuspension unter Zusatz von Myrj 53 (85 mg.%) in isotonischer Natriumchlorid-Lösung verabreicht.
Die Ratten werden in bezug auf ihr Köpergewicht möglichst gleichmäßig in verschiedene Gruppen eingeteilt. Nach plethysmographischej Volumenmessung der rechten Hinterpfote wird in diese subplantar 0,1 ml Adjuvans injiziert. Die rechten Hinterpfoten werden vom 14. Versuchstag bis zum Versuchsende gemessen. Die Versuchsdauer beträgt 3 Wochen.
Bestimmt wird die Dosis an Testsubstanz, bei der eine 40 %ige Abheilung beobachtet wird (=ED40).

[1] = single oral dose equal to the ED40 of the adjuvant arthritis test, male Wistar rats, fasted 16 h, stomach examined 3 h after application

Row | Structure (SMILES) | Anzahl der Magenulzera bei gleicher Dosis (Magen; [1]) | ED40 (Adjuvans-Arthritis) | Anzahl der Magenulzera bei gleicher Dosis (Magen; rat, in vivo, po)
1 | CC(C(=O)O)c1ccc(CC2CCCC2)c(Cl)c1 (stereo not drawn) [Verbindung 7, 2-(3-Chlor-4-cyclopentyl-methyl-phenyl)-propionsäure] | 0,6 | 3 mg/kg | –
2 | O=C(O)C1CCc2cc(CC3CCCC3)c(Cl)cc21 (stereo not drawn) [Verbindung 8, 6-Chlor-5-cyclopentyl-methyl-indan-1-carbonsäure] | 2,2 | 30 mg/kg | –
3 | O=C(O)C1CCc2cc(C3CCCCC3)ccc21 (stereo not drawn) [Verbindung 3, 5-Cyclohexyl-indan-1-carbonsäure] | – | 50 mg/kg | 8,3
4 | CC(C(=O)O)c1ccc(CC2CCCC2)cc1 (stereo not drawn) [Verbindung 6, 2-(4-Cyclopentylmethyl-phenyl)-propionsäure] | 0,6 | 10 mg/kg | –
5 | CC(C)Cc1ccc(C(C)C(=O)O)cc1 (stereo not drawn) [Verbindung 1] | – | 100 mg/kg | 6,8
6 | CC(C(=O)O)c1ccc(CC2CC2)cc1 (stereo not drawn) [Verbindung 5, 2-(4-Cyclopropylmethyl-phenyl)-propionsäure] | 5,4 | 90 mg/kg | –
7 | O=C(O)C1CCc2cc(C=C3CCCC3)c(Cl)cc21 (stereo not drawn) [Verbindung 9, 6-Chlor-5-cyclopentyliden-methyl-indan-1-carbon-säure] | 0,7 | 40 mg/kg | –
8 | CC(C(=O)O)c1ccc(C2CCCCC2)cc1 (stereo not drawn) [Verbindung 2, 2-(4-Cyclohexyl-phenyl)-propionsäure] | – | 40 mg/kg | 7,6
9 | O=C(O)C1CCc2cc(C3CCCCC3)c(Cl)cc21 (stereo not drawn) [Verbindung 4, 6-Chlor-5-cyclohexyl-indan-1-carbonsäure] | – | 4 mg/kg | 7,8
